Experimental data taken from US20030215462A1, “Use of UGT inhibitors to increase bioavailability” (priority 2001, published 2003).
Several values for one entry are separate records, joined by “and”; a condition that tells them apart may be missing. Identical values can stand only once.

How the values were obtained:
[1] = molecular target: T1, UGT enzymes of human liver microsomes; assay: Inhibition of 7-HFC glucuronidation in human liver microsomes; assay type: biochemical; settings: for % of control metabolism (SD, n = 3), 7-HFC glucuronidation: human liver microsomes 100 μg/ml
T1 construct: percentage of control metabolism, 7-HFC glucuronidation; percentage of control metabolism, 7-HFC glucuronidation

[2] = tested on: T1, UGT enzymes of human liver microsomes; assay: Kinetic and Ki studies of inhibitors of 7-HFC glucuronidation in human liver microsomes; assay type: biochemical; settings: 7-HFC 20-500 μM
[3] = tested on: UGT enzymes of pooled human jejunum microsomes; assay: Inhibition of raloxifene glucuronidation (G1, G2) in pooled human jejunum microsomes; assay type: biochemical; settings: jejunum HJ61; inhibitor 50 μM
Experimental: Compounds were eluted using a binary solvent gradient system. […] Solvent B was methanol. […] Detection was at 280 nm.
Standardized incubations utilized […] microsomal protein, 1 mM UDPGA and a 30 min incubation time.

[4] = tested on: T2, UGT enzymes of human liver microsomes; assay: Inhibition of labetalol glucuronidation (LG1, LG2) in human liver microsomes; assay type: biochemical; settings: labetalol 50 μM; inhibitor 50 μM
T2 construct: residual metabolism (percentage of control), labetalol LG1; other: labetalol 50 μM; residual metabolism (percentage of control), labetalol LG1; residual metabolism (percentage of control), labetalol LG2; inhi

[5] = tested on: UGT enzymes of human liver microsomes; assay: Inhibition of estradiol (E2) glucuronidation in human liver microsomes; assay type: biochemical; settings: liver 062101; E2 50 μM; inhibitor 50 μM
Text: (§1) Compounds were eluted using a binary solvent gradient system where solvent A was dilute phosphoric acid (pH 3) and solvent B was 80:20 acetonitrile-methanol. […] Detection was at 280 nm.

[6] = tested on: T3, UGT enzymes of human liver microsomes; assay: as above; assay type: biochemical; settings: liver 032101; E2 50 μM; inhibitor 50 μM
T3 construct: residual metabolism (% of control), E2-17-β-D-glucuronide; other: liver 032101; residual metabolism (% of control), E2-17-β-D-glucuronide
Text: as §1

[7] = tested on: T4, UGT enzymes of human liver microsomes; assay: as above; assay type: biochemical; settings: liver 032101; E2 50 μM; inhibitor 50 μM
T4 construct: residual metabolism (% of control), E2-3-β-D-glucuronide; other: liver 032101; residual metabolism (% of control), E2-3-β-D-glucuronide
Text: as §1

[8] = tested on: UGT enzymes of pooled human jejunum microsomes; assay: Inhibition of estradiol (E2) glucuronidation in pooled human jejunum microsomes; assay type: biochemical; settings: jejunum HJ61; E2 50 μM; inhibitor 50 μM
Text: as §1

[9] = tested on: T5, UGT enzymes of human liver microsomes; assay: Inhibition of 2ME2 glucuronidation (MG1, MG2) in human liver microsomes; assay type: biochemical; settings: liver 062101, 2ME2 50 μM
T5 construct: other: liver 062101
Text: as §1

[10] = molecular target: T6, UGT1A1 (Homo sapiens, UniProt P22309); assay: Inhibition of raloxifene glucuronidation by recombinant UGT1A1 Supersomes; settings: human; for activity at 15 min, 25 µM: inhibitor 25 μM; for activity at 15 min, 50 µM: inhibitor 50 μM
T6 sequence (P22309 26-533): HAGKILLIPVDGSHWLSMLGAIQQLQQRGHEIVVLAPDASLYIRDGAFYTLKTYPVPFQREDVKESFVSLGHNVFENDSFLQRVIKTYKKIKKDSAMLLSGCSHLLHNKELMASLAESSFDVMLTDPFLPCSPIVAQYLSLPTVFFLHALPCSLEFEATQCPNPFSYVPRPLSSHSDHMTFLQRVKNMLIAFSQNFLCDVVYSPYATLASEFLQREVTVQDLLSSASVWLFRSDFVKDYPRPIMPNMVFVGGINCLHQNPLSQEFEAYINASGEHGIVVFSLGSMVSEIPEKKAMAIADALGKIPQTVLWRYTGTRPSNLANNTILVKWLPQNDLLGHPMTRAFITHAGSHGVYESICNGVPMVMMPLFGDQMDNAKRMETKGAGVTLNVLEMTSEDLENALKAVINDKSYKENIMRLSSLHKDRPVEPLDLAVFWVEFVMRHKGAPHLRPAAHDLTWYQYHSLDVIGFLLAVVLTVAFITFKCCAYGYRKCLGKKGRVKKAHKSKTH
Experimental: Compounds were eluted using a binary solvent gradient system. Solvent A was water brought to pH 8 with NH4OH. Solvent B was methanol. Solvent flow rate was 1 ml/min and the column temperature was maintained at 50° C. Detection was at 280 nm. […] The system was then returned to the initial conditions and equilibrated for 3 min.

[11] = molecular target: T7, UGT1A9 (Homo sapiens, UniProt O60656); assay: Inhibition of raloxifene glucuronidation by recombinant UGT1A9 Supersomes; settings: for activity at 15 min, 25 µM / activity at 15 min, 50 µM: human, Supersomes with recombinant human UGT1A9, pH 7.5, probe raloxifene 50 μM; for Inhibition of raloxifene glucuronidation, UGT1A9, second line per inhibitor (G2): second line (G2, metabolite not given), raloxifene 50 μM, 250 μg/ml Supersomes, 1 mM UDPGA, 15 min
T7 sequence (O60656 26-530): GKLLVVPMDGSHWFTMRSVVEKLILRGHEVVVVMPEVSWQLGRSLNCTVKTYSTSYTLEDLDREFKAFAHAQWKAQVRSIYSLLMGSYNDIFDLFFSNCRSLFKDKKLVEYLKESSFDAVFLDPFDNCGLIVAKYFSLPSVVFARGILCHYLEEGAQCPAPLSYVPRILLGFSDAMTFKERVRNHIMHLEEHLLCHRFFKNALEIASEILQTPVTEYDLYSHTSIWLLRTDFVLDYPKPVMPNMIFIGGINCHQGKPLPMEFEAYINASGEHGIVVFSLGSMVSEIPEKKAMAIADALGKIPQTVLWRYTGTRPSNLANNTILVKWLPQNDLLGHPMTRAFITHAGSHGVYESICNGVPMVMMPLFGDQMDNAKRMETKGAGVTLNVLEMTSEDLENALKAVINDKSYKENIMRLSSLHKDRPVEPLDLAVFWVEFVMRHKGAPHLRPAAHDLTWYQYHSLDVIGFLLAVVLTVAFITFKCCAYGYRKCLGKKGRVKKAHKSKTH

[12] = Supersomes with recombinant human UGT1A1, pH 7.5, probe raloxifene 50 μM, formation of glucuronide G1, % of control metabolism, raloxifene G1, UGT1A1
[13] = Supersomes with recombinant human UGT1A1, pH 7.5, probe raloxifene 50 μM, formation of glucuronide G1, Inhibition of raloxifene glucuronidation, G1, UGT1A1, G1, raloxifene 50 μM, 250 μg/ml Supersomes, 1 mM UDPGA, 15 min
[14] = Supersomes with recombinant human UGT1A1, pH 7.5, probe raloxifene 50 μM, formation of glucuronide G2, % of control metabolism, raloxifene G2, UGT1A1
[15] = recombinant UGT1A1 Supersomes, pH 7.5, probe raloxifene 50 μM (formation of glucuronide G2), Inhibition of raloxifene glucuronidation, G2, UGT1A1, G2, raloxifene 50 μM, 250 μg/ml Supersomes, 1 mM UDPGA, 15 min

Question: Which IC50 ([1]; 7-HFC 50 μM, 1 mM UDPGA, 15 min) does the source give for O=C(O[C@@H]1Cc2c(O)cc(O)cc2O[C@H]1c1cc(O)c(O)c(O)c1)c1cc(O)c(O)c(O)c1 [Gallocatechin gallate] here?
Answer: 100 µM

Question: What about the “percentage of control metabolism, 7-HFC glucuronidation” value (from here on “percentage of control metabolism”) ([1]; inhibitor 25 μM) of the same compound?
Answer: 80 (2) %

Question: What about the “% of control metabolism (SD, n = 3), 7-HFC glucuronidation” value ([1]; inhibitor 25 μM, 7-HFC 50 μM, 15 min) of the same compound?
Answer: 80 (2) %

Question: What about the “percentage of control metabolism” value ([1]; inhibitor 50 μM) of the same compound?
Answer: 68 (2) %

Question: And the “% of control metabolism (SD, n = 3), 7-HFC glucuronidation” value ([1]; inhibitor 50 μM, 7-HFC 50 μM, 15 min)?
Answer: 68 (2) %

Question: And the “percentage of control metabolism” value ([1]; inhibitor 100 μM)?
Answer: 54 (1) % and 46 (2) %

Question: And the “% of control metabolism (SD, n = 3), 7-HFC glucuronidation” value ([1]; inhibitor 100 μM, 7-HFC 50 μM, 15 min)?
Answer: 54 (1) % and 46 (2) %

Question: What about the “percentage of control metabolism” value ([1]; inhibitor 200 μM) of the same compound?
Answer: 25 (0) %

Question: And the “% of control metabolism (SD, n = 3), 7-HFC glucuronidation” value ([1]; inhibitor 200 μM, 7-HFC 50 μM, 15 min)?
Answer: 25 (0) %

Question: And the “percentage of control metabolism” value ([1]; inhibitor 500 μM)?
Answer: 0 (0) %

Question: What about the “% of control metabolism (SD, n = 3), 7-HFC glucuronidation” value ([1]; inhibitor 500 μM, 7-HFC 50 μM, 15 min) of the same compound?
Answer: 0 (0) %

Question: What about the “Vmax of 7-HFC glucuronidation (fit of the experiment with this inhibitor)” value [2] of the same compound?
Answer: 54 ± 3 nmol/min/mg

Question: What about the Km ([2]; read-out: Km of 7-HFC glucuronidation (fit of the experiment with this inhibitor)) of the same compound?
Answer: 75 ± 7 µM

Question: And the “% of control metabolism, raloxifene G1” value [3]?
Answer: 10 (0), 10 (0) %

Question: What about the “% of control metabolism, raloxifene G2” value [3] of the same compound?
Answer: 10 (0), 10 (0) %

Question: What about the “residual metabolism (percentage of control), labetalol LG1” value [4] of the same compound?
Answer: 60 (5) %

Question: What about the “residual metabolism (percentage of control), labetalol LG2” value [4] of the same compound?
Answer: 55 (8) %

Question: What about the “residual metabolism (% of control), E2-3-β-D-glucuronide” value [5] of the same compound?
Answer: 33 (2) %

Question: What about the “residual metabolism (% of control), E2-17-β-D-glucuronide” value [5] of the same compound?
Answer: 55 (2) %

Question: What about the “residual metabolism (% of control), E2-17-β-D-glucuronide” value [6] of the same compound?
Answer: 69 (4) %

Question: And the “residual metabolism (% of control), E2-3-β-D-glucuronide” value [7]?
Answer: 24 (1) %

Question: What about the “residual metabolism (% of control), E2-3-β-D-glucuronide” value [8] of the same compound?
Answer: 25 (1) %

Question: What about the “residual metabolism (% of control), E2-17-β-D-glucuronide” value [8] of the same compound?
Answer: 39 (1) %

Question: What about the “residual metabolism (% of control), 2ME2 MG1” value ([9]; inhibitor 25 μM) of the same compound?
Answer: 33 (1) %

Question: And the “residual metabolism (% of control), 2ME2 MG2” value ([9]; inhibitor 25 μM)?
Answer: 73 (1) %

Question: And the “residual metabolism (% of control), 2ME2 MG1” value ([9]; inhibitor 50 μM)?
Answer: 21 (2) %

Question: And the “residual metabolism (% of control), 2ME2 MG2” value ([9]; inhibitor 50 μM)?
Answer: 61 (1) %

Question: And the “residual metabolism (% of control), 2ME2 MG1” value ([9]; inhibitor 100 μM)?
Answer: 9 (1) %

Question: What about the “residual metabolism (% of control), 2ME2 MG2” value ([9]; inhibitor 100 μM) of the same compound?
Answer: 36 (1) %

Question: What about the activity at 15 min ([10]; Supersomes with recombinant human UGT1A1, pH 7.5, probe raloxifene 50 μM, formation of glucuronide G1) of the same compound?
Answer: 79%

Question: What about the activity at 15 min, 25 µM [10, 12] of the same compound?
Answer: 52%

Question: And the activity at 15 min, 50 µM [10, 12]?
Answer: 30%

Question: And the activity at 15 min, 25 µM [10, 13]?
Answer: 52%

Question: What about the activity at 15 min, 50 µM [10, 13] of the same compound?
Answer: 30%

Question: What about the activity at 15 min, 25 µM [10, 14] of the same compound?
Answer: 54%

Question: What about the activity at 15 min, 50 µM [10, 14] of the same compound?
Answer: 32%

Question: And the activity at 15 min ([10]; recombinant UGT1A1 Supersomes, pH 7.5, probe raloxifene 50 μM (formation of glucuronide G2))?
Answer: 76%

Question: And the activity at 15 min, 25 µM [10, 15]?
Answer: 54%

Question: What about the activity at 15 min, 50 µM [10, 15] of the same compound?
Answer: 32%

Question: And the activity at 15 min, 25 µM ([11]; formation of glucuronide G1, % of control metabolism, raloxifene G1, UGT1A9, inhibitor 25 μM)?
Answer: 72%

Question: And the activity at 15 min, 50 µM ([11]; formation of glucuronide G1, % of control metabolism, raloxifene G1, UGT1A9, inhibitor 50 μM)?
Answer: 47%

Question: And the activity at 15 min, 25 µM ([11]; formation of glucuronide G2, % of control metabolism, raloxifene G2, UGT1A9, inhibitor 25 μM)?
Answer: 63%

Question: And the activity at 15 min, 50 µM ([11]; formation of glucuronide G2, % of control metabolism, raloxifene G2, UGT1A9, inhibitor 50 μM)?
Answer: 44%

Question: And the “Inhibition of raloxifene glucuronidation, UGT1A9, second line per inhibitor (G2)” value ([11]; inhibitor 25 μM)?
Answer: 63 (4)

Question: And the “Inhibition of raloxifene glucuronidation, UGT1A9, second line per inhibitor (G2)” value ([11]; inhibitor 50 μM)?
Answer: 44 (2)
